In brackets after ≈: the same amount, converted by molar mass.
Experiments:
[1] = tested on: TPA-treated mouse ears (erythema, Δa* redness); experiment: TPA mouse ear model of inflammation - erythema inhibition; format: in vivo; conditions: topical, 24 hours
Method: The protocol for measuring erythema inhibition by provided complexes was developed in-house by utilizing the CR-400 chroma meter from Konica Minolta (2). This instrument was used to measure the Δa*redness value from 6 mm biopsy punches taken 24 hours post TPA/compound treatment as described in the edema inhibition section above. […] These values were corrected for the Δa* value of non TPA-treated mouse ears of littermate controls.

[2] = tested on: MPO (myeloperoxidase), neutrophil marker; experiment: TPA mouse ear model of inflammation - MPO inhibition (dermal neutrophil infiltration); format: in vivo; conditions: for % MPO Inhibition in the Mouse Ear Inflammation Assay (4% concentration): topical, 24 hours
Method: Briefly, we homogenized 6mm biopsy punches taken from both compound-treated ears as well as TPA-treated and non-treated control groups. We quantitated the levels of MPO by a colorimetric reaction that was measured spectrophotometrically. The percent inhibition of neutrophil infiltration by each complex was determined by comparing the average MPO levels in the presence and absence of these compounds. The calculation for percent inhibition of MPO was determined similar to that as described for calculating the percent edema inhibition, see the Edema Inhibition protocol, supra.

[3] = tested on: MPO activity (neutrophil infiltration) in P. acnes-injected ear; experiment: P. acnes-induced mouse ear model of inflammation - MPO endpoint; format: in vivo
Method: The methods for a model of P. acnes-inflammation are described elsewhere (Nakatsuji et al., J Invest Dermatol, 2008, 128: 2451-2457).
The protocol for inducing inflammation using P. acnes bacterial challenge on the mouse ear was slightly modified from the method described previously (Natatsuji et al., 2008). Briefly, Swiss Webster (ICR, 6-8 weeks old) mouse ears were injected with living P. acnes culture intradermally. An amount of 20 μl aliquots of living P. acnes (ATCC 6919, 3×10^6 CFU) suspended in PBS was intradermally injected in the central portion of the ear. As a control, 20 μl of PBS was injected into control animals.
To assay for inhibition of dermal neutrophil infiltration by AFC complexes, a standard method was used (see Bradley et al., J Invest Dermatol, 1982,78: 206-209; Young et al., J Invest Dermatol, 1983, 80: 48-52; De Young et al, Agents Actions, 1989, 26: 335-41; and Rao et al., Inflammation, 1993, 17: 723-41). Briefly, 6mm biopsy punches taken from both compound-treated ears as well as non-treated control ears were homogenized in 400 μl of 0.5% hexadecyltrimethylammonium bromide in 50 mM potassium phosphate buffer (pH 6.0) using the Fast Prep 24 (MP Biomedicals, Solon, Ohio). Supernatants were assayed for MPO activity using a model EL 340 96-well plate reader (BioTek Instruments, Winooski, Vt.). The percent inhibition of neutrophil infiltration by each AFC complex was determined by comparing the average MPO levels in the presence and absence of these compounds. The percent inhibition of MPO was determined by taking the average MPO activity of compound-treated ears and dividing it by the average MPO activity of 12 ears that only received the P. acnes challenge and subtracting that value from 100%. These values were corrected for the MPO activity of normal, non P. acnes-treated mouse ears of littermate controls. Summary of MPO activity ranges determined from an MPO activity assay for dexamethasone (administered at a dose of 1.6 mg/20 μL), clobetasol (administered at a dose of 0.1 mg/20 μL), salicylic acid (administered at a dose of 0.4 mg/20 μL), AFC (administered at a dose of 0.4 mg/20 μL), AFC-Strontium complex (administered at a dose of 0.4 mg/20 μL) and SFC-disodium are presented in Table 4. “+” indicates a range of 0-20%, “++” indicates a range of 20-40%, and “+++” indicates >40% inhibition.

[4] = tested on: TPA-treated mouse ears (edema, ear thickness); experiment: TPA mouse ear model of inflammation - edema inhibition; format: in vivo; conditions: topical, 24 hours
[5] = tested on: mouse skin reepithelialization; experiment: Mouse wound healing model - skin reepithelialization; format: in vivo
Excerpt: The healing of wounded skin is mediated by epidermal reepithelialization that requires keratinocyte migration. Glucocorticoids are known to inhibit wound healing (Ehrlich et al., Proc Soc Exp Biol Med, 1971, 137: 936-938; Leibovich et al., Am J Pathol, 1975, 78, 71-100). […] The methods for studying mouse skin reepithelialization using both partial and full thickness mouse wound healing models have been described elsewhere (Kim et al. Wound Repair Regen, 2001, 9: 386-390). In brief, for partial thickness wounds, a 3 mm-diameter circle of epidermis is removed from the ventral auricle. The resulting wound is cleansed and dressed with an occlusive polyurethane film. The mouse ears are excised on days 3, 5, 8, and 11 post-operation and fixed in 10% buffered formalin. Following day 8 post-operation, sampling of treated mice is performed to determine completion of healing. For full thickness wounds, mice heads are shaved and depilated prior to excising the skin. The cleaned and dressed wounds are harvested and fixed at days 3, 5, 8 and 10 and fixed in 10% buffered formalin.

[6] = tested on: Propionibacterium acnes (strain ATCC 6919); experiment: Inhibition of Propionibacterium acnes growth; format: cell-based; conditions: 72 hours, anaerobic, absorbance 600 nm, 1×10^6 CFU per mL
Method: The assay for the inhibition of growth of Propionibacterium acnes bacteria is described elsewhere (Nakatsuji et al., J Invest Dermatol, 2009, 129: 2480-2488). In brief, the strain ATCC 6919 of P. acnes (American Type Culture Collection, Manassas, Va.) was cultured on Brucella agar (R01254, Remel, Lenexa, Kans.) supplemented with 5% (v/v) defibrinated sheep blood, vitamin K (5 mg/ml, Remel, Lenexa, Kans.), and hemin (50 mg/ml, Remel, Lenexa, Kans.), under an anaerobic condition using Gas-Pak (BD, Sparks, Md.) at 37° C. A single colony was inoculated in Reinforced Clostridium Medium (Oxford, Hampshire, England) and cultured at 37° C. under the anaerobic condition. Each of the inventive complexes—AFC-Sr, AFC-Ag and AFC-Zn as well as AFC were dissolved in 100% (v/v) DMSO. Samples of each inventive complex, AFC and a solution of benzoyl peroxide (“BPO”) were then each incubated with an inoculum of P. acnes at a concentration of 1×10^6 CFU per mL in Reinforced Clostridium Medium in a 96-well microplate (100 μL per well) under anaerobic conditions for 72 hours. Samples of each were tested at final concentrations per well of 0.25 μg/mL, 0.5 μg/mL, 1.0 μg/mL, 1.95 μg/mL, 3.9 μg/mL, 7.8 μg/mL, 15.625 μg/mL, 31.25 μg/mL, 62.5 μg/mL, 125 μg/mL, 250μg/mL, and 500 μg/mL. A control well received only 5% (v /v) of DMSO in place of a sample of an inventive complex. After 72 hours incubation under anaerobic conditions, the P. acnes cultures in the 96-well microplate were mixed well and then absorbance readings at 600 nm were taken to determine bacterial growth. […] Growth curves of P. acnes determined for BPO, AFC, AFC-Sr, AFC-Ag and AFC-Zn are depicted in FIG. 3.

[7] = tested on: TPA-treated mouse ears (edema, ear thickness); experiment: TPA mouse ear model of inflammation - edema inhibition; format: in vivo; conditions: TPA-treated mouse ear, at the dose tested; AFC oil n=1, data not shown
Method: In brief, mice were sedated and their ears were treated with 1.2 μg/20 uL TPA (i.e., tetradecanoylphorbol-13-acetate). After 5 minutes, we dosed these TPA-treated ears with a single 8 μg/20 μL dose, a 2 μg/20 μL dose, or both doses, of provided complexes. After 24 hours, the mice were sacrificed and edema was measured by taking micrometer readings of each ear. […] These values were corrected for the thickness of normal, non TPA-treated mouse ears of littermate controls.

Molecule | % Erythema Inhibition in the Mouse Ear Inflammation Assay (4% concentration) [1] | % MPO Inhibition in the Mouse Ear Inflammation Assay (4% concentration) ([2]; TPA-treated mouse ear) | % Edema Inhibition in the Mouse Ear Inflammation Assay (4% concentration) [4] | further results
CC(C)=CCC/C(C)=C/CC/C(C)=C/CSC[C@H](NC(=O)CCC(=O)[O-])C(=O)[O-].[Na+].[Na+] [SFC-disodium] | ++ (“++” indicates a range of 20-40%) | ++ (“++” indicates a range of 40-80%) | ++ (“++” indicates a range of 20-50%) | MPO % Inhibition ([3]; dose not given): +++ (“+++” indicates >40% inhibition)
Calcium 4-((R)-1-carboxy-2-((2E,6E)-3,7,11-trimethyldodeca-2,6,10-trienylthio)ethylamino)-4-oxobutanoate [SFC-calcium complex] | +++ (“+++” indicates >40% inhibition of erythema) | ++ (“++” indicates a range of 40-80%) | +++ (“+++” indicates >50% inhibition of edema) | –
CC(C)=CCC/C(C)=C/CC/C(C)=C/CSC[C@H](NC(=O)CCC(=O)O)C(=O)O [SFC, N-succinyl-S-farnesyl-L-cysteine] | + (“+”indicates a range of 0-20%) | +++ (“+++” indicates >80% inhibition of MPO) | +++ (“+++” indicates >50% inhibition of edema) | –
C[C@@H]1C[C@H]2[C@@H]3CCC4=CC(=O)C=C[C@]4(C)[C@@]3(F)[C@@H](O)C[C@]2(C)[C@@]1(O)C(=O)CO [Dexamethasone] | – | – | – | MPO % Inhibition ([3]; dose of 1.6 mg/20 μL): +++ (“+++” indicates >40% inhibition)
CC(C)=CCC/C(C)=C/CC/C(C)=C/CSC[C@H](NC(=O)CCC(=O)[O-])C(=O)O.[Na+] [SFC-monosodium] | ++ (“++” indicates a range of 20-40%) | ++ (“++” indicates a range of 40-80%) | ++ (“++” indicates a range of 20-50%) | –
C[C@H]1C[C@H]2[C@@H]3CCC4=CC(=O)C=C[C@]4(C)[C@@]3(F)[C@@H](O)C[C@]2(C)[C@@]1(O)C(=O)CCl [Clobetasol] | – | – | – | effect on mouse skin reepithelialization of wounds [5]: significantly delayed; MPO % Inhibition ([3]; dose of 0.1 mg/20 μL): +++ (“+++” indicates >40% inhibition)
O=C(O)c1ccccc1O [Salicylic Acid] | – | – | – | MPO % Inhibition ([3]; dose of 0.4 mg/20 μL): ++ (“++” indicates a range of 20-40%)
O=C(OOC(=O)c1ccccc1)c1ccccc1 [BPO, benzoyl peroxide, reference compound] | – | – | – | IC50 ([6]; Cutibacterium acnes, ATCC6919, 72 h, read-out: IC50 (inhibition of P. acnes growth)): 161 µg/mL (≈ 665 µM)
Zinc (R)-2-acetamido-3-((2E,6E)-3,7,11-trimethyldodeca-2,6,10-trienylthio)propanoate [AFC-Zinc complex] | – | – | – | IC50 (inhibition of P. acnes growth) [6]: 9.2 µg/mL
CC(=O)N[C@@H](CSC/C=C(\C)CC/C=C(\C)CCC=C(C)C)C(=O)O [AFC-Glucosamine complex, Glucosamine (R)-2-acetamido-3-((2E,6E)-3,7,11-trimethyldodeca-2,6,10-trienylthio)propanoate] | – | ++ (“++” indicates a range of 40-80%) | +++ (“+++” indicates >50% inhibition of edema) | inhibition of neutrophil infiltration ([2]; TPA-treated mouse ear, at the dose tested, AFC oil n=1, data not shown): 73.15±6.0%; inhibition of edema [7]: 70.84±5.25%
Strontium (R)-2-amino-3-((2E,6E)-3,7,11-trimethyldodeca-2,6,10-trienylthio)propanoate [Farnesyl Cysteine-Strontium complex] | ++ (“++” indicates a range of 20-40%) | – | ++ (“++” indicates a range of 20-50%) | –
[Cl-].[Cl-].[Sr+2] [Strontium chloride, reference compound] | + (“+”indicates a range of 0-20%) | – | + (“+”indicates a range of 0-20%) | biological activity compared with AFC-strontium complex (FIG. 1) ([2]; FIG. 1, follows the MPO discussion of b517, assay not named): no significant activity
